Series [1] is described as follows: Caco-2 permeability. The series is classed as in vitro ADME. The conditions noted are these: human, 10 μM of compound. As to the method:
(§1) All in vitro absorption, distribution, metabolism, and excretion (ADME) studies were conducted by BioDuro-Sundia. […] Caco-2 permeability, human liver microsomal stability, and human plasma protein binding assays as well as liquid chromatography-mass spectrometry/mass spectrometry analyses were performed following standard protocols previously described in detail ([Kazakova et al, 2023]).

The test system of series [2] is U2OS cells. Put plainly: Live-cell quantification of YOYO-3-positive dead cells. The series is classed as cell-based. As to the method: To measure caspase activity, cells cultured in white opaque-bottom 384-well plates were incubated in the presence or absence of 1 μg/mL Dox for 24 hours. Caspase-Glo 8 or 3/7 reagent was then added 1:1 and allowed to incubate for 90 minutes at RT followed by luminescence measurement using the CLARIOstar microplate reader (BMG LABTECH). Signals had background luminescence subtracted and then normalized to the respective Dox-untreated i-GFP-expressing parental controls to obtain relative CASP8-like LETDase or CASP3/7-like DEVDase activities. For live-cell quantification, the cells seeded on black clear-bottom 96-well plates were incubated with the indicated compounds (0.1% to 0.3% DMSO final) in the presence of 100 nM YOYO-3, a cell-impermeant DNA-binding fluorescent probe that stains membrane integrity-impaired, dead cells. […] Phase and fluorescence images were obtained at the indicated intervals using the IncuCyte S3 Live-Cell Analysis System (Essen BioScience; 10× objective) and then analyzed using the Cell-by-Cell Analysis module (Essen BioScience; 9600-0031) of IncuCyte S3 Software (Essen BioScience; Version 2019B Rev2). To quantify the percentage of dead GFP-expressing cells, the GFP and YOYO-3 double-positive cell population was divided by the total GFP-positive cell population.

Series [3] deals with T1, recombinant human VCP.
T1 construct: His (N); host or cells: Escherichia coli BL21(DE3)
T1 sequence (P46462 2-806 limits assumed): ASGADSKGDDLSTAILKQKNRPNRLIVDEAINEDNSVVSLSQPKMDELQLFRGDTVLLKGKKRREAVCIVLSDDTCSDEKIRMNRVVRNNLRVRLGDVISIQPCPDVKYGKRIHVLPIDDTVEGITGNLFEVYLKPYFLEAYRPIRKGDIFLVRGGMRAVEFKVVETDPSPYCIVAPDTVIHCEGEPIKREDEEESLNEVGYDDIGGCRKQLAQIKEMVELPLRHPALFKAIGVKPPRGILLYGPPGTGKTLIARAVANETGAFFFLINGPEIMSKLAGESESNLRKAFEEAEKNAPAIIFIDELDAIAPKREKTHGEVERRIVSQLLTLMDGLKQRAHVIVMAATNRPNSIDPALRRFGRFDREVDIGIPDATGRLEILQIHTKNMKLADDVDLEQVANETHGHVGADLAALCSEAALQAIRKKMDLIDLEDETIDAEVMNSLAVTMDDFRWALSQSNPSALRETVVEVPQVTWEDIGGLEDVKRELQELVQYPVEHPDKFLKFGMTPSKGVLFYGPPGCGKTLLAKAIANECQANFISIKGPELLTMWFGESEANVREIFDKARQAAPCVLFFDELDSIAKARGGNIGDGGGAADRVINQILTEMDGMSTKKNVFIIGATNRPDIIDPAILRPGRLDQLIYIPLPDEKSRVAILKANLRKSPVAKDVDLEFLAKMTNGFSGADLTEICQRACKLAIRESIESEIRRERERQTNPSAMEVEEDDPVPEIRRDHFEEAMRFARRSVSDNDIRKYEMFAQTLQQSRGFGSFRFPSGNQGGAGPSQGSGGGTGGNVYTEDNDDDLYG
Put plainly: VCP ATPase activity, EnzChek Phosphate assay. The series is classed as biochemical. The settings on record: 0.5 μM enzyme. As to the method: (§2) VPS4B and VCP ATPase activities were measured using the EnzChek Phosphate assay for the quantification of released phosphate. Assay buffers were based on literature precedents ([Cupido et al, 2019], [2021]) as follows: VPS4B buffer (20 mM HEPES-KOH, pH 7.4, 25 mM KOAc, 2 mM MgCl2, 5 mM (NH4)2SO4, 0.5 mM CaCl2, 2.5 mM DTT, 0.1 mg/mL BSA, 0.005% v/v Triton X-100), VCP buffer (20 mM HEPES-NaOH, pH 7.4, 20 mM NaCl, 10 mM MgCl2, 5 mM (NH4)2SO4, 0.5 mM CaCl2, 2.5 mM DTT, 0.1 mg/mL BSA, 0.005% v/v Triton X-100). In black clear-bottom 384-well plates, 22.5 μL of 5% DMSO or 40× test compounds diluted in the respective assay buffer was added to each well. ATPases were diluted to 1 μM in the respective buffers containing 2× EnzChek Phosphate assay coupling reagents of 400 μM MESG and 2 U of PNP, then 25 μL was added to each well. Plates were mixed at 1000 rpm for 30 minutes at RT while being protected from light. The reaction was initiated by adding 2.5 μL of 20 mM MgATP or water followed by mixing at 1200 rpm for 30 seconds at RT. Plates were measured at 360 nm using a CLARIOstar plate reader (BMG LABTECH) for 20 minutes at 37 °C. ATPase activity was calculated as the amount of phosphate released over a 5-minute interval under linear initial velocity conditions. The remaining ATPase activity was calculated by normalizing compound-treated activity values to the DMSO control. IC50 was calculated by fitting normalized values to a sigmoidal dose-response curve with Hill slope = −1 using Graph Pad Prism 10.0.
(§3) To identify VPS4i, we developed enzyme- and cell-based VPS4 functional assays to serve as VPS4i-screening platforms. For the enzyme-based assay, we used the colorimetric EnzChek Phosphate assay that detects free phosphate with the advantage of continuous measurement of ATP hydrolysis over time. […] Due to the high sequence and structural similarity of AAA-ATPases, we also established a VCP ATPase assay to evaluate hit selectivity. […] For the cell-based assay, our approach was based on how VPS4 inhibition causes the accumulation of ESCRT-III ([Babst et al, 1998]; [Katoh et al, 2003]). We used an N-terminal GFP-tagged CHMP4B reporter system because it is the most abundant ESCRT-III subunit ([Katoh et al, 2004]; [Teis et al, 2008]). Our aim was to test compounds under short-term serum and amino acid starvation to stimulate ESCRT activity for easier detection of inhibitors ([Takahashi et al, 2018], [2019]). […] Overall, we established 2 systems for VPS4i screening, a VPS4B ATPase activity assay and a GFP-CHMP4B accumulation cell-based assay.

Series [4] concerns the target T2, recombinant human VCP (Rattus norvegicus, UniProt P46462).
T2 construct: His (N); host or cells: Escherichia coli BL21(DE3)
Kind of series: VCP ATPase activity, EnzChek Phosphate assay. The series is classed as biochemical. As to the method:
as §2, §3

Series [5] is described as follows: Human plasma protein binding. The settings on record: 5 μM of compound. The series is classed as in vitro ADME. The method, then:
as §1

T2 sequence (P46462 2-806 limits assumed): as above

In the case of `COc1cccc2c(NCc3ccccc3)nc(NCc3ccccc3)nc12` [Compound 4-107, N^2,N^4-dibenzyl-8-methoxyquinazoline-2,4-diamine], in series [1], the Papp A→B at 10 μM came out at 0.03 ×10⁻⁶ cm/s, the Papp B→A at 10 μM is 0.3 ×10⁻⁶ cm/s and the efflux ratio at 10 μM amounted to 10.3. The “cell death (YOYO-3-positive dead cells)” value in series [2] (2 μM 4-107, WT U2OS cells) is listed as “induced cell death in a time-dependent manner”. Also, the “enhanced temporal sensitivity of VPS4A- and VPS4B-deficient cells compared with WT cells” value in series [2] (2 μM 4-107, crVPS4A, crVPS4B vs WT U2OS) is listed as “about 12 hours”. Also, the IC50 in series [3] was determined as 8.6 ± 3.9 µM. For the same molecule, in series [4] (remaining ATPase activity, screened at 5 μM, mean ± SD, Table 2), the “VCP ATPase (% DMSO)” value was 68.48 ± 2.85 % DMSO. Further, the “VCP ATPase (% DMSO)” value in series [4] (screened at 5 µM, mean ± S.D., Supplemental Table 2) is on record as 68.48 ± 2.02 % DMSO. In addition, the fraction unbound at 5 μM in series [5] was 0.0007.
